Earlier results as cited in patent US20220206017A1, “AEROBIC GLYCOLYSIS AND HYPERMETABOLIC STATES” (priority 2022, published 2022).

Columns and labels:
[1] = 3BP and DCA intravenous; 2DG oral
melanoma = details: in vivo; compared to L-Lactic Acid Dimer (LLAD) and phosphate buffered saline control; FIG. 3, ref [4]
hexokinase II = molecular target: T1, hexokinase II (Homo sapiens, UniProt P52789); details: inhibition of hexokinase II; reported value
T1 sequence (P52789 1-917): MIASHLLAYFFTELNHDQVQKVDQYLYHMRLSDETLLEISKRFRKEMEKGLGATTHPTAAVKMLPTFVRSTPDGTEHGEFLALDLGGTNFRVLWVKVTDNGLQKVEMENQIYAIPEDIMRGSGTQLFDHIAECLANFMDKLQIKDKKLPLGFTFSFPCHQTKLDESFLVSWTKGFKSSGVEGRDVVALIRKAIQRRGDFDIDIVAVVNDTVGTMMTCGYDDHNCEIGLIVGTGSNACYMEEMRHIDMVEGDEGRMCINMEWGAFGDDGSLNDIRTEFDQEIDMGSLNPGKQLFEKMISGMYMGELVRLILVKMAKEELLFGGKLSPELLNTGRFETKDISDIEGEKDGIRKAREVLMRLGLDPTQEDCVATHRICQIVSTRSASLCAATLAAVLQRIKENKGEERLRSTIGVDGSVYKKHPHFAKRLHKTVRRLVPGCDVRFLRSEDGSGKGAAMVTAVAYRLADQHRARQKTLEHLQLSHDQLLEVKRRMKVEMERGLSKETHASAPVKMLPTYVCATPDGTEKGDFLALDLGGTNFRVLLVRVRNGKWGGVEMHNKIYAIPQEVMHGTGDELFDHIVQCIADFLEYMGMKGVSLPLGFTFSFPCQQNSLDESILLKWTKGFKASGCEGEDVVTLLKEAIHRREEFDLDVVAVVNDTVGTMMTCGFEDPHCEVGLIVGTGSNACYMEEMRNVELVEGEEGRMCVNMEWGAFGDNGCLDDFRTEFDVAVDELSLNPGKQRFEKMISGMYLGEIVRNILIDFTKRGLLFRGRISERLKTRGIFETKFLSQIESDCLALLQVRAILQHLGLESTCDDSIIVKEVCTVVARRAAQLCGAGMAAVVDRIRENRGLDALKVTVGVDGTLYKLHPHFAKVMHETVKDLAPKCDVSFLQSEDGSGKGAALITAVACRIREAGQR

Red blood cells (RBC) = details: monotherapy at known clinical doses

SMILES	side effects of administration / clinical use [1]	melanoma cytotoxicity as measured by Ki-67 nuclei (melanoma)	Ki (hexokinase II) [mM]	RBC hemolysis (Red blood cells (RBC))
O=C(O)C(Cl)Cl [DCA, Dichloroacetate]	neurotoxicity			
O=C(O)C(=O)CBr [3BP, 3-Bromopyruvate]	pain and phlebitis			
C[C@@H](O)C(=O)O[C@H](C)C(=O)O [DLAD, D-Lactic Acid Dimer]		impressive melanoma cytotoxicity		
O=CC[C@@H](O)[C@H](O)[C@H](O)CO [2DG, 2-Deoxy-D-Glucose]	generally well tolerated		2.9	does not cause RBC hemolysis
